Source: ChEMBL document CHEMBL1201862, “PubChem BioAssay data set” (2004)
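Exposure lasted 48 hours, with cells grown in 96-well plates and compounds tested at five concentrations. The concentration for 50% growth inhibition is given as GI50.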 Activity calls are given as the source filed them. Cut-off read from the data, not from the text of the source: active = GI50 up to about 1.1 µM and inactive = higher.

Assays:
Experiment in all cases: growth of human tumour cells (NCI), 48 h
A549 = tested on: A549
CCRF-CEM = tested on: CCRF-CEM
SF-268 = tested on: SF-268
RXF 393 = tested on: RXF 393
OVCAR-5 = tested on: OVCAR-5
SNB-19 = tested on: SNB-19
RPMI-8226 = tested on: RPMI-8226
K562 = tested on: K562
IGROV-1 = tested on: IGROV-1
SK-MEL-5 = tested on: SK-MEL-5
HT-29 = tested on: HT-29
UO-31 = tested on: UO-31
SNB-75 = tested on: SNB-75
COLO 205 = tested on: COLO 205
UACC-257 = tested on: UACC-257
SN12C = tested on: SN12C
OVCAR-3 = tested on: OVCAR-3
SK-MEL-2 = tested on: SK-MEL-2
NCI-H226 = tested on: NCI-H226
HOP-92 = tested on: HOP-92

Measured: GI50

CCSc1nc(N)c2c(-c3ccc(OC)c(OC)c3)c3c(nc2n1)CCCC3
inactive: A549 > 100 µM | CCRF-CEM > 100 µM | SF-268 > 100 µM | RXF 393 > 100 µM | OVCAR-5 > 100 µM | SNB-19 > 100 µM | RPMI-8226 > 100 µM | K562 > 100 µM | IGROV-1 > 100 µM | SK-MEL-5 > 100 µM | HT-29 > 100 µM | UO-31 > 100 µM | SNB-75 58.2 µM | COLO 205 > 100 µM | UACC-257 > 100 µM | SN12C > 100 µM | OVCAR-3 > 100 µM

COC(=O)C1=C(O)C(C(=O)OC)[C@]2(O)[C@@H](C(=O)OC)[C@H]1C[C@@H](c1ccccc1)[C@@H]2C(=O)OC (some centres not stated)
inactive: CCRF-CEM 5.42 µM | SF-268 1.96 µM | SK-MEL-2 13.9 µM | RXF 393 5.08 µM | OVCAR-5 16 µM | SNB-19 24.3 µM | NCI-H226 18.6 µM | RPMI-8226 9.73 µM | K562 5.61 µM | HT-29 16.3 µM | UO-31 12.2 µM | SNB-75 16.9 µM | UACC-257 10.3 µM | SN12C 15.7 µM | OVCAR-3 13.8 µM

Cc1c(OCc2ccccc2)c(=O)ccn1CCc1c[nH]c2ccccc12
inactive: A549 36.6 µM | CCRF-CEM 40.7 µM | SF-268 19.2 µM | SK-MEL-2 19 µM | OVCAR-5 65.9 µM | SNB-19 32.7 µM | RPMI-8226 31.9 µM | IGROV-1 26.6 µM | SK-MEL-5 18.3 µM | HT-29 23.3 µM | UO-31 43.1 µM | HOP-92 14.4 µM | COLO 205 16.4 µM | UACC-257 73.8 µM | SN12C 45.6 µM | OVCAR-3 18.5 µM

O=C1C2Cc3ccccc3CN2C(=O)N1CN1CCCCC1 (configuration not stated)
inactive: A549 > 100 µM | CCRF-CEM 43.4 µM | SF-268 > 100 µM | SK-MEL-2 > 100 µM | OVCAR-5 > 100 µM | SNB-19 > 100 µM | NCI-H226 > 100 µM | RPMI-8226 31.1 µM | K562 > 100 µM | IGROV-1 > 100 µM | SK-MEL-5 > 100 µM | UO-31 > 100 µM | COLO 205 > 100 µM | SN12C > 100 µM | OVCAR-3 > 100 µM

NC(=O)C1(c2ccccc2)Nc2ccccc2S1 (configuration not stated)
inactive: A549 > 100 µM | CCRF-CEM > 100 µM | SF-268 > 100 µM | SK-MEL-2 > 100 µM | RXF 393 > 100 µM | OVCAR-5 > 100 µM | SNB-19 > 100 µM | NCI-H226 > 100 µM | RPMI-8226 > 100 µM | K562 > 100 µM | SK-MEL-5 > 100 µM | HT-29 > 100 µM | UO-31 > 100 µM | COLO 205 > 100 µM | SN12C > 100 µM | OVCAR-3 > 100 µM

COc1cc2c(cc1OC)-c1c(cnn1C1OC(COC(C)=O)C(OC(C)=O)C(OC(C)=O)C1OC(C)=O)CC2 (configuration not stated)
inactive: A549 > 100 µM | CCRF-CEM 28.6 µM | SF-268 > 100 µM | SK-MEL-2 > 100 µM | OVCAR-5 > 100 µM | SNB-19 > 100 µM | NCI-H226 > 100 µM | RPMI-8226 > 42.8 µM | K562 33 µM | IGROV-1 > 100 µM | SK-MEL-5 > 83.4 µM | HT-29 > 100 µM | UO-31 55.7 µM | HOP-92 48.1 µM | SNB-75 48.9 µM | COLO 205 > 100 µM | UACC-257 > 100 µM | OVCAR-3 > 88.1 µM

CN1CC=C(c2cccn2C)CC1
inactive: A549 > 100 µM | CCRF-CEM > 100 µM | SF-268 > 100 µM | SK-MEL-2 > 100 µM | RXF 393 > 100 µM | OVCAR-5 > 100 µM | SNB-19 > 100 µM | NCI-H226 > 100 µM | RPMI-8226 > 100 µM | K562 > 100 µM | IGROV-1 > 100 µM | SK-MEL-5 > 100 µM | HT-29 > 100 µM | UO-31 > 100 µM | SNB-75 > 100 µM | COLO 205 > 100 µM | UACC-257 > 100 µM | SN12C > 100 µM | OVCAR-3 > 100 µM

O=c1ccn(CC2(CO)CC(Cc3ccccc3)C2)c(=O)[nH]1 (configuration not stated)
inactive: A549 > 100 µM | CCRF-CEM > 100 µM | SF-268 > 100 µM | SK-MEL-2 > 100 µM | RXF 393 > 100 µM | OVCAR-5 > 100 µM | NCI-H226 > 100 µM | RPMI-8226 > 100 µM | K562 > 100 µM | IGROV-1 > 100 µM | SK-MEL-5 > 100 µM | HT-29 > 100 µM | UO-31 > 100 µM | SNB-75 > 100 µM | COLO 205 > 100 µM | UACC-257 > 100 µM | SN12C > 100 µM | OVCAR-3 > 100 µM

CC(=O)OC(C(=O)O)C(OC(C)=O)C(OC(C)=O)C(OC(C)=O)C(=O)O (configuration not stated)
inactive: A549 > 100 µM | CCRF-CEM > 100 µM | SF-268 > 100 µM | SK-MEL-2 > 100 µM | OVCAR-5 > 100 µM | SNB-19 > 100 µM | NCI-H226 > 100 µM | RPMI-8226 > 100 µM | K562 > 100 µM | IGROV-1 > 100 µM | SK-MEL-5 > 100 µM | HT-29 > 100 µM | UO-31 > 100 µM | HOP-92 > 100 µM | COLO 205 > 100 µM | UACC-257 > 100 µM | SN12C > 100 µM | OVCAR-3 > 100 µM

Nc1nn(CC(O)CO)c(=O)s1 (configuration not stated)
inactive: A549 > 100 µM | CCRF-CEM > 100 µM | SF-268 > 100 µM | SK-MEL-2 > 100 µM | RXF 393 > 100 µM | OVCAR-5 > 100 µM | SNB-19 > 100 µM | NCI-H226 > 100 µM | RPMI-8226 > 100 µM | K562 > 100 µM | IGROV-1 > 100 µM | SK-MEL-5 > 100 µM | HT-29 > 100 µM | UO-31 > 100 µM | SNB-75 64.6 µM | COLO 205 > 100 µM | UACC-257 > 100 µM | SN12C > 100 µM | OVCAR-3 > 100 µM

O=Cc1cn(CCCCCCCCn2cc(C=O)c3ccccc32)c2ccccc12
inactive: A549 6.59 µM | CCRF-CEM > 10 µM | SF-268 > 10 µM | SK-MEL-2 > 10 µM | RXF 393 > 10 µM | OVCAR-5 8.79 µM | SNB-19 > 10 µM | NCI-H226 8.24 µM | RPMI-8226 3.96 µM | K562 3.27 µM | IGROV-1 > 10 µM | SK-MEL-5 4.17 µM | HT-29 > 10 µM | UO-31 > 10 µM | SNB-75 5.6 µM | COLO 205 > 10 µM | SN12C > 10 µM | OVCAR-3 > 10 µM

COP(=O)(OC)C(Cc1cn(C(C)=O)c2ccccc12)C(=O)O (configuration not stated)
inactive: A549 > 100 µM | CCRF-CEM > 100 µM | SK-MEL-2 > 100 µM | OVCAR-5 > 100 µM | SNB-19 > 100 µM | NCI-H226 > 100 µM | RPMI-8226 > 100 µM | K562 > 100 µM | IGROV-1 > 100 µM | SK-MEL-5 > 100 µM | HT-29 > 100 µM | UO-31 > 100 µM | HOP-92 65.5 µM | SNB-75 > 100 µM | COLO 205 > 100 µM | UACC-257 > 100 µM | SN12C > 100 µM | OVCAR-3 > 100 µM

CCP(=O)(CC)C(Cl)Cl
inactive: A549 > 100 µM | CCRF-CEM > 100 µM | SK-MEL-2 > 100 µM | OVCAR-5 > 100 µM | SNB-19 > 100 µM | NCI-H226 > 100 µM | RPMI-8226 > 100 µM | K562 > 100 µM | IGROV-1 > 100 µM | SK-MEL-5 > 100 µM | HT-29 > 100 µM | UO-31 > 100 µM | HOP-92 > 100 µM | SNB-75 > 100 µM | COLO 205 > 100 µM | UACC-257 > 100 µM | SN12C > 100 µM | OVCAR-3 > 100 µM

COC(=O)C1=COC2OC3/C(=C\c4ccc(O)c(OC)c4)C(=O)OC34C=CC1C24 (configuration not stated)
inactive: A549 17.1 µM | CCRF-CEM 23.2 µM | SF-268 19.5 µM | SK-MEL-2 11.3 µM | OVCAR-5 18.3 µM | SNB-19 19.6 µM | NCI-H226 14.4 µM | RPMI-8226 26.1 µM | K562 15.5 µM | IGROV-1 24.4 µM | SK-MEL-5 35.2 µM | HT-29 19.2 µM | UO-31 14.4 µM | HOP-92 22.5 µM | SNB-75 11.7 µM | COLO 205 20.1 µM | UACC-257 15.9 µM | SN12C 17.8 µM | OVCAR-3 14.9 µM

CCCCOP1(=O)C=CC(Cl)=C(C)C1 (configuration not stated)
inactive: A549 > 100 µM | CCRF-CEM 4.11 µM | SF-268 28.1 µM | SK-MEL-2 12.4 µM | SNB-19 51.9 µM | NCI-H226 21.4 µM | RPMI-8226 22.3 µM | K562 3.28 µM | HT-29 22 µM | UO-31 41.8 µM | HOP-92 23.2 µM | SNB-75 23.3 µM | COLO 205 33 µM | UACC-257 > 10 µM | SN12C 20 µM | OVCAR-3 24.7 µM

CCOC(=O)/C(C(=O)Nc1ccc(Cl)cc1)=C(/N)N1CCCC1
inactive: A549 > 100 µM | CCRF-CEM > 100 µM | SF-268 > 100 µM | SK-MEL-2 49.3 µM | RXF 393 > 100 µM | OVCAR-5 > 100 µM | SNB-19 > 100 µM | NCI-H226 > 100 µM | RPMI-8226 97.9 µM | K562 66.7 µM | IGROV-1 54.2 µM | HT-29 > 100 µM | SNB-75 > 100 µM | COLO 205 > 100 µM | UACC-257 > 100 µM | SN12C > 100 µM | OVCAR-3 > 100 µM
